Literature values in patent US20080195230A1, “Pericardial tissue sheet” (priority 2007, published 2008).

How the values were obtained:
[1] = tested on: Chinese hamster ovary (CHO-K1) cells; conditions: in vitro
3T3 fibroblasts = conditions: in vitro
rabbit = conditions: i.v.

Row | Compound | genotoxicity (clastogenic response) [1] | cytotoxicity compared with glutaraldehyde (3T3 fibroblasts) | solubility in organic solvents (alcohol, acetic acid, acetone) | solubility in water (water) | LD50 (rabbit)
1 | COC(=O)C1=CO[C@@H](O)[C@@H]2C(CO)=CC[C@H]12 [genipin] | does not cause clastogenic response | substantially less cytotoxic than glutaraldehyde |  |  | 
2 | Deoxycholic acid |  |  | soluble in alcohol and to a lesser extent acetone and glacial acetic acid | sparingly soluble in water | 15 mg/kg
